We go through 1 compound from ChEMBL document CHEMBL1146095, “Modeling the preferred shapes of polyamine transporter ligands and dihydromotuporamine-C mimics: shovel versus hoe” (J Med Chem, 2006).

In assay [1] the test system is Mammalian polyamine transporter. In words: Inhibition of [14C]spermidine uptake into polyamine transporter expressed in L1210 cells. It counts as functional, cell-based, Mus musculus.
For the next assay, the system named is CHO. In words: Cytotoxicity against CHO cell line. The format is functional, cell-based. The settings on record: Cricetulus griseus.
Assay [2] is described as follows: Selectivity for CHO cells over CHO-MG cells. The format is functional.
The next assay concerns CHO-MG. As to the kind of experiment: Cytotoxicity against CHO-MG cell line. The format is functional, cell-based. The note with it: Cricetulus griseus.

The Ki is a dissociation constant, usually derived from enzyme kinetics or from competition with a known ligand. Read a low Ki as a stronger hold on the target. For orientation: IC50 means the concentration at which inhibition is half-maximal. A higher IC50 goes with weaker potency in that assay. In turn, `CCN(CCCNCCCN)Cc1c2ccccc2cc2ccccc12.Cl.Cl.Cl` yielded a Ki in assay [1] of 23.5 µM. Moreover, the IC50 is 5.3 µM in the assay on CHO and 4 µM in the assay on CHO-MG. For the same compound, the “Ratio IC50” value in assay [2] amounted to 0.8.
